Experiment [1] concerns the target T1, human histamine H4 receptor (Homo sapiens, UniProt Q9H3N8). In words: biochemical.
In experiment [2] the target is guinea pig histamine H4 receptor (Cavia porcellus, UniProt Q91ZY3). In words: biochemical.
In experiment [3] the target is rat histamine H4 receptor (Rattus norvegicus, UniProt Q91ZY1). The experiment in a line: biochemical.
For experiment [4], the target named is T1, human histamine H4 receptor. Conditions: histamine 100 pM-100 uM; forskolin 3 uM; SK-N-MC cells.
Experiment [5] relates to Zymosan Induced Peritonitis in Mice. The note with it: for effect on PMN influx: H4 ANTAG #1 10 mg/kg, Imetit 5 mg/kg, thioperamide 5 mg/kg, 4 h after zymosan; for PMN (10^6 per mouse) Mean: group mean, s.c. at -15 min and +2 h (H4 ANTAG #1 10 mg/kg; Imetit, Thioperamide 5 mg/kg), lavage 4 h after zymosan.
For experiment [6], the system named is Croton Oil Induced Topical Inflammation in Mice. Conditions: 6 h after croton oil.
Experiment [7] addresses T1, human histamine H4 receptor. Conditions: SK-N-MC or COS7 cells expressing human histamine H4 receptor.

T1 sequence (Q9H3N8 whole entry): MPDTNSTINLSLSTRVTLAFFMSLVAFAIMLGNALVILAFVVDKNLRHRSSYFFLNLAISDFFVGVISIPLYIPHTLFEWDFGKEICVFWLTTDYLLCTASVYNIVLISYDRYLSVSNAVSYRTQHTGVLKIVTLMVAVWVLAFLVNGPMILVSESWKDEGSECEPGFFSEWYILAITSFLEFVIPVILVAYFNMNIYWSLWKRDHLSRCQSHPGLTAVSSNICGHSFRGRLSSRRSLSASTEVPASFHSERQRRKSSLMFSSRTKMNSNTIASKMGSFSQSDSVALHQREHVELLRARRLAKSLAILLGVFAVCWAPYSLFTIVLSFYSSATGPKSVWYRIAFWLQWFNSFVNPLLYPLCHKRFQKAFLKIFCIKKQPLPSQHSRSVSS
Sequence of rat histamine H4 receptor (Q91ZY1 whole entry): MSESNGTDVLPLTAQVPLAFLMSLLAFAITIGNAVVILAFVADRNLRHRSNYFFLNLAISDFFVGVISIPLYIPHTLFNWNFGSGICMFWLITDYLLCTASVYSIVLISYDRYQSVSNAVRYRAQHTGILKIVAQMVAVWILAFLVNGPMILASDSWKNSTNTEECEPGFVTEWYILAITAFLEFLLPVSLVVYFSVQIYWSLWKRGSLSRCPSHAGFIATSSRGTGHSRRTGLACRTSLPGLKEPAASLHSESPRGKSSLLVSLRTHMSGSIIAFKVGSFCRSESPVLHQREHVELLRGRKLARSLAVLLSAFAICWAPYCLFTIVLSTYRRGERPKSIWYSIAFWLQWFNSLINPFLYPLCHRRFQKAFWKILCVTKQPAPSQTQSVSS
Sequence of guinea pig histamine H4 receptor (Q91ZY3 1-389): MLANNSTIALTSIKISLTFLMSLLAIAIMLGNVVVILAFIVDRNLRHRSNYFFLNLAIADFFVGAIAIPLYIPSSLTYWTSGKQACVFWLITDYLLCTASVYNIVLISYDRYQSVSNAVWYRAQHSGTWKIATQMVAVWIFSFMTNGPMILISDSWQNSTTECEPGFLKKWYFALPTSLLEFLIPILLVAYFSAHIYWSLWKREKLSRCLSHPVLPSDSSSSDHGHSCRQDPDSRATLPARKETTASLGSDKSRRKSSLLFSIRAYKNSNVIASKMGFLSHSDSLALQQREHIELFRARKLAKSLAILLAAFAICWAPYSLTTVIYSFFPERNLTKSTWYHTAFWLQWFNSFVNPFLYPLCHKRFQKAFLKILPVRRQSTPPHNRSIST

`NC(=NCc1ccc(Cl)cc1)SCCCc1cnc[nH]1` [Clobenpropit]: the Ki in experiment [1] amounted to 4.9 nM; in experiment [2], 3.6 nM; in experiment [3], 63 nM.

For the molecule `NCCc1c[nH]cn1` [Histamine], the “activation of recombinant human histamine H4 receptor (decrease of forskolin-raised cAMP), words” value in experiment [4] was “specifically activated”. In addition, the Ki in experiment [2] stood at 27 nM.

Turning to `N=C(N)SCCc1cnc[nH]1` [Imetit], the “effect on PMN influx” value in experiment [5] is “inactive”. In experiment [5], the “PMN (10^6 per mouse) Mean” value was 17.3 10^6 per mouse. Besides, the Ki in experiment [1] amounted to 1.3 nM; in experiment [2], 30 nM; in experiment [3], 6.8 nM.

Take `COc1ccc2c(c1)c(CC(=O)O)c(C)n2C(=O)c1ccc(Cl)cc1` [Indomethacin]: in experiment [6] (group mean, s.c. ×3 (H4 ANTAG #1 10 mg/kg; Indomethacin 30 mg/kg)), the “Difference in ear thickness (×0.01 mm) Mean” value is 10.0 ×0.01 mm. Further, the “% inhib (ear swelling)” value in experiment [6] (vs vehicle, s.c. ×3) is given as “(−40%)”.

Turning to `CNCCc1c[nH]cn1` [N-methylhistamine], the Ki in experiment [1] was found to be 48 nM; in experiment [2], 220 nM; in experiment [3], 552 nM.

As for `S=C(NC1CCCCC1)N1CCC(c2cnc[nH]2)CC1` [Thioperamide], in experiment [5], the “effect on PMN influx” value is listed as “significant inhibitory effect” and the “PMN (10^6 per mouse) Mean” value is on record as 9.3 10^6 per mouse. The “% inhib (PMN)” value in experiment [5] (vs PBS + zymosan, 4 h, doses as in Table 1, s.c.) is listed as “(−46%)”. Also, the Ki in experiment [2] turned out to be 83 nM.

As for ^3H-histamine, the “^3H-histamine binding” value in experiment [7] is “high affinity”.

The record behind these values is US20030133931A1 (priority 2001, published 2003).
